Measurements as given in ChEMBL document CHEMBL3603826, “6-Arylpyrazine-2-carboxamides: A New Core for Trypanosoma brucei Inhibitors” (J Med Chem, 2015).
In brackets after ≈: the same amount, converted by molar mass.

Experiments:
[1] = test system: Trypanosoma brucei brucei; assay: Anti-parasitic activity against Trypanosoma brucei brucei 427 bloodstream parasites incubated for 48 hrs by alamar blue dye based assay; format: functional, organism-based; settings: Trypanosoma brucei, 427, 48 h
[2] = Selectivity index, ratio of cytotoxic IC50 for HEK293 cells to EC50 for anti-parasitic activity against Trypanosoma brucei brucei 427 bloodstream parasites; format: toxicity, cell-based; settings: human, read-out: Ratio IC50/EC50
[3] = test system: Trypanosoma brucei rhodesiense; assay: Anti-parasitic activity against Trypanosoma brucei rhodesiense STIB 900 trypomastigotes incubated for 70 hrs by alamar blue dye based assay; format: functional, organism-based; settings: STIB 900, 70 h
Trypanosoma cruzi = assay: Anti-parasitic activity against Trypanosoma cruzi Tulahuen C2C4 trypomastigotes infected rat L6 cells incubated for 96 hrs by CPRG/nonidet substrate based […]; format: functional, organism-based; settings: Tulahuen C2C4, L6, 96 h
Leishmania donovani = assay: Anti-parasitic activity against Leishmania donovani MHOM/ET/67/L82 axenic amastigotes incubated for 70 hrs by alamar blue dye based assay; format: functional, organism-based; settings: MHOM/ET/67/L82, 70 h
Plasmodium falciparum = assay: Anti-parasitic activity against chloroquine and pyrimethamine resistant Plasmodium falciparum K1 erythrocytic stages infected in human erythrocytes incubated for 48 hrs by [3H]-hypoxanthine incorporation assay; format: functional, organism-based
[4] = Toxicity against rat L6 cells incubated for 70 hrs by alamar blue dye based assay; format: cell-based
[5] = Selectivity index, ratio of cytotoxic IC50 for rat L6 cells to EC50 for anti-parasitic activity against Trypanosoma brucei rhodesiense STIB 900; format: toxicity, cell-based; settings: read-out: Ratio IC50/EC50
[6] = Partition coefficient, logD of the compound at pH 7.4 by HPLC method; format: physicochemical; settings: octanol/water
[7] = Kinetic solubility in pH 2.0 0.01M HCl buffer by nephelometry; format: physicochemical; settings: read-out: Kinetic_solubility
[8] = Kinetic solubility in pH 6.5 phosphate buffer by nephelometry; format: physicochemical; settings: read-out: Kinetic_solubility
serum albumin = serum albumin (Homo sapiens, UniProt P02768); assay: Binding affinity to human serum albumin by chromatographic method; format: ADME; settings: read-out: PB (converted)
Chain of serum albumin (P02768 whole entry): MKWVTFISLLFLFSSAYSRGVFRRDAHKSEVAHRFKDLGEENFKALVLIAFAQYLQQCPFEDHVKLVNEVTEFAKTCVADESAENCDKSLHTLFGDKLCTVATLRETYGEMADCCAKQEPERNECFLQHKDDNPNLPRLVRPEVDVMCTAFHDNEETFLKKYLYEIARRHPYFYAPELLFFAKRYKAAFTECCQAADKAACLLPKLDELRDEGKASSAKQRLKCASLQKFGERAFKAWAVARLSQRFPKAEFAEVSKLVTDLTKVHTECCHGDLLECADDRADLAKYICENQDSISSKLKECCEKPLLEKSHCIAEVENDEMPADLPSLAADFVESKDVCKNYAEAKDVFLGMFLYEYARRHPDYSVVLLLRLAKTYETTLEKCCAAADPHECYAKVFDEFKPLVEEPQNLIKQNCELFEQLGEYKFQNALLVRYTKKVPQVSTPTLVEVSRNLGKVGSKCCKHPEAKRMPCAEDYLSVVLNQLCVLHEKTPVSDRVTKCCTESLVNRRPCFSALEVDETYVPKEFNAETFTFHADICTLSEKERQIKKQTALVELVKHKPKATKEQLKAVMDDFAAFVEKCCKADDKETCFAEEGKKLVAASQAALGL

[9] = Stability assessed as degradation half life; format: physicochemical
[10] = Intrinsic clearance in human liver microsomes assessed per mg protein at pH 7.4 at 0.5 uM in presence of NADPH regenerating system by LC-MS method; format: ADME; settings: read-out: CLH

Compound | EC50 [1] | selectivity ratio [2] | also measured
Nc1ncc(-c2ccccc2)nc1C(=O)Nc1ccccc1 | > 10000 nM |  | 
CCC(C)NC(=O)c1nc(-c2ccccc2)cnc1N (configuration not stated) | 490 nM | > 263 | EC50 [3]: 970 nM; EC50 (Trypanosoma cruzi): 19 µM; EC50 (Leishmania donovani): > 10 µM; EC50 (Plasmodium falciparum): 11 µM; IC50 at 70 h [4]: 18 µM; selectivity ratio [5]: 19
CCC(CC)NC(=O)c1nc(-c2cc(C)cc(Cl)c2)cnc1N | 770 nM | 50 | 
CC(C)NC(=O)c1nc(-c2ccccc2)cnc1N | 2600 nM | > 33 | 
CCC(CC)NC(=O)c1nc(-c2ccccc2)cnc1N | 320 nM | > 263 | logD [6]: 4.3; solubility kinetic [7]: 6.3 µg/mL (≈ 22.2 µM); solubility kinetic [8]: 3.1 µg/mL (≈ 10.9 µM); fraction unbound (serum albumin): 0.05; half-life [9]: 13 min; microsomal CLint at 0.5 µM [10]: 133 µL/min/mg
CNC(=O)c1nc(-c2ccccc2)cnc1N | > 10000 nM |  | 
CCCCCNC(=O)c1nc(-c2ccccc2)cnc1N | 1700 nM | 50 | 
CCCC(C)NC(=O)c1nc(-c2ccccc2)cnc1N (configuration not stated) | 530 nM | > 156 | 
Nc1ncc(-c2ccccc2)nc1C(=O)NCCCCO | 7300 nM | > 11 | 
Nc1ncc(-c2ccccc2)nc1C(=O)NCCO | > 10000 nM |  | 
Nc1ncc(-c2ccccc2)nc1C(=O)NCCN1CCCC1 | > 10000 nM |  | 
Nc1ncc(-c2ccccc2)nc1C(=O)NCCc1ccccc1 | > 10000 nM |  | 
Nc1ncc(-c2ccccc2)nc1C(=O)NCCN1CCOCC1 | > 10000 nM |  | 
Nc1ncc(-c2ccccc2)nc1C(=O)NCc1ccccc1 | 2600 nM | 32 | 
CC(C)(C)NC(=O)c1nc(-c2ccccc2)cnc1N | 3000 nM | > 14 | logD [6]: 4.3; solubility kinetic [7]: < 1.6 µg/mL; solubility kinetic [8]: < 1.6 µg/mL; fraction unbound (serum albumin): 0.015; half-life [9]: 7 min; microsomal CLint at 0.5 µM [10]: 246 µL/min/mg
Nc1ncc(-c2ccccc2)nc1C(=O)N1CCCC1 | 6100 nM | > 14 | 
Nc1ncc(-c2ccccc2)nc1C(=O)N1CCCCC1 | 4600 nM | > 18 | 
Nc1ncc(-c2ccccc2)nc1C(=O)N1CCOCC1 | > 10000 nM |  | 
CCC(C)NC(=O)c1nc(-c2ccccc2F)cnc1N (configuration not stated) | 750 nM | 111 | 
CCC(C)NC(=O)c1nc(-c2ccccc2Cl)cnc1N (configuration not stated) | 1100 nM | 76 | 
CCC(C)NC(=O)c1nc(-c2ccccc2Br)cnc1N (configuration not stated) | > 10000 nM |  | 
CCC(C)NC(=O)c1nc(-c2ccccc2OC)cnc1N (configuration not stated) | 5400 nM | > 15.4 | 
CCC(C)NC(=O)c1nc(-c2ccccc2[N+](=O)[O-])cnc1N (configuration not stated) | 890 nM | 94 | 
CCC(C)NC(=O)c1nc(-c2ccccc2N)cnc1N (configuration not stated) | > 10000 nM |  | 
CCC(C)NC(=O)c1nc(-c2ccccc2C(C)=O)cnc1N (configuration not stated) | 10000 nM | 7.9 | 
CCC(C)NC(=O)c1nc(-c2ccccc2C)cnc1N (configuration not stated) | 1200 nM | > 71 | 
CCC(C)NC(=O)c1nc(-c2ccccc2C#N)cnc1N (configuration not stated) | 350 nM | > 239 | EC50 [3]: 640 nM; EC50 (Trypanosoma cruzi): 11 µM; EC50 (Leishmania donovani): > 10 µM; EC50 (Plasmodium falciparum): 3.6 µM; IC50 at 70 h [4]: 18 µM; logD [6]: 3.6; solubility kinetic [7]: 1.6 µg/mL (≈ 5.42 µM); solubility kinetic [8]: 1.6 µg/mL (≈ 5.42 µM); fraction unbound (serum albumin): 0.05; half-life [9]: 14 min; microsomal CLint at 0.5 µM [10]: 122 µL/min/mg
CCC(C)NC(=O)c1nc(-c2cccc(F)c2)cnc1N (configuration not stated) | 820 nM | 102 | 

Compound | EC50 [1] | selectivity ratio [2] | also measured
CCC(C)NC(=O)c1nc(-c2cccc(Br)c2)cnc1N (configuration not stated) | 570 nM | 147 | 
CCC(C)NC(=O)c1nc(-c2cccc(OC)c2)cnc1N (configuration not stated) | 410 nM | > 201 | 
CCC(C)NC(=O)c1nc(-c2cccc([N+](=O)[O-])c2)cnc1N (configuration not stated) | 450 nM | 185 | 
CCC(C)NC(=O)c1nc(-c2cccc(N)c2)cnc1N (configuration not stated) | 1100 nM | > 77.8 | 
CCC(C)NC(=O)c1nc(-c2cccc(C(C)=O)c2)cnc1N (configuration not stated) | > 10000 nM |  | 
CCC(C)NC(=O)c1nc(-c2cccc(C)c2)cnc1N (configuration not stated) | 170 nM | > 495 | EC50 [3]: 130 nM; EC50 (Trypanosoma cruzi): 25 µM; EC50 (Leishmania donovani): > 10 µM; EC50 (Plasmodium falciparum): 19 µM; IC50 at 70 h [4]: 43 µM; selectivity ratio [5]: 340
CCC(C)NC(=O)c1nc(-c2cccc(C#N)c2)cnc1N (configuration not stated) | 2700 nM | > 30.5 | 
CCC(C)NC(=O)c1nc(-c2ccc(Cl)cc2)cnc1N (configuration not stated) | 680 nM | 122 | logD [6]: 4.5; solubility kinetic [7]: 3.1 µg/mL (≈ 10.2 µM); solubility kinetic [8]: 1.6 µg/mL (≈ 5.25 µM); fraction unbound (serum albumin): 0.03; half-life [9]: 36 min; microsomal CLint at 0.5 µM [10]: 48 µL/min/mg
CCC(C)NC(=O)c1nc(-c2ccc(Br)cc2)cnc1N (configuration not stated) | 2200 nM | 38 | 
CCC(C)NC(=O)c1nc(-c2ccc(OC)cc2)cnc1N (configuration not stated) | 1300 nM | > 63.9 | 
CCC(C)NC(=O)c1nc(-c2ccc([N+](=O)[O-])cc2)cnc1N (configuration not stated) | 4500 nM | > 18.5 | 
CCC(C)NC(=O)c1nc(-c2ccc(N)cc2)cnc1N (configuration not stated) | 2900 nM | > 28.4 | 
CCC(C)NC(=O)c1nc(-c2ccc(C(C)=O)cc2)cnc1N (configuration not stated) | 4700 nM | 8.8 | 
CCC(C)NC(=O)c1nc(-c2ccc(C)cc2)cnc1N (configuration not stated) | 3740 nM | 22 | 
CCC(C)NC(=O)c1nc(-c2ccc(C#N)cc2)cnc1N (configuration not stated) | 2700 nM | > 30.4 | 
CCC(CC)NC(=O)c1nc(-c2ccccc2C#N)cnc1N | 170 nM | 488 | EC50 [3]: 130 nM; EC50 (Trypanosoma cruzi): 15 µM; EC50 (Leishmania donovani): > 10 µM; EC50 (Plasmodium falciparum): 4.8 µM; IC50 at 70 h [4]: 10 µM; selectivity ratio [5]: 80
CCC(CC)NC(=O)c1nc(-c2cc(C)cc(C)c2)cnc1N | 480 nM | 173 | 
CCC(CC)NC(=O)c1nc(-c2cccc(C(F)(F)F)c2)cnc1N | 260 nM | 80 | 
CCC(CC)NC(=O)c1nc(-c2cccc(Cl)c2)cnc1N | 360 nM | 110 | 
CCC(CC)NC(=O)c1nc(-c2ccc(F)c(Cl)c2)cnc1N | 220 nM | 190 | 
Nc1ncc(-c2ccc(F)cc2)nc1C(=O)NC1CCCC1 | 71 nM | 590 | 
Cc1cc(-c2cnc(N)c(C(=O)NC3CCCC3)n2)ccc1F | 24 nM | 3540 | 
N#Cc1cc(F)ccc1-c1cnc(N)c(C(=O)NC2CCCC2)n1 | 57 nM | 1470 | 
Nc1ncc(-c2cccc(C(F)(F)F)c2)nc1C(=O)NC1CCCC1 | 150 nM | 560 | 
Nc1ncc(-c2cccc(Cl)c2)nc1C(=O)NC1CCCC1 | 240 nM | 340 | 
Cc1cc(Cl)cc(-c2cnc(N)c(C(=O)NC3CCCC3)n2)c1 | 500 nM | 170 | 
Nc1ncc(-c2ccc(F)c(Cl)c2)nc1C(=O)NC1CCCC1 | 110 nM | 190 | 
